Active and inactive are the calls of the source.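 Rule for the calls: active = a fitted half-maximal concentration EC50 for the rise in nuclear signal no higher than ten times the top dose tested; inconclusive = flat fit with activity between 30% and 70%, or unusable fit; inactive = EC50 beyond ten times the top dose.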
target: Hypoxia-inducible factor 1-alpha (Homo sapiens) (UniProt Q16665); test: HIF pathway activation, GFP-HIF1alpha translocation – imaging, fluorescence, U2OS GFP-HIF1alpha, confirmation (AID 434951); details: U2OS GFP-HIF1alpha nuclear intensity, high-content imaging
Sequence (Q16665 whole entry, looked up): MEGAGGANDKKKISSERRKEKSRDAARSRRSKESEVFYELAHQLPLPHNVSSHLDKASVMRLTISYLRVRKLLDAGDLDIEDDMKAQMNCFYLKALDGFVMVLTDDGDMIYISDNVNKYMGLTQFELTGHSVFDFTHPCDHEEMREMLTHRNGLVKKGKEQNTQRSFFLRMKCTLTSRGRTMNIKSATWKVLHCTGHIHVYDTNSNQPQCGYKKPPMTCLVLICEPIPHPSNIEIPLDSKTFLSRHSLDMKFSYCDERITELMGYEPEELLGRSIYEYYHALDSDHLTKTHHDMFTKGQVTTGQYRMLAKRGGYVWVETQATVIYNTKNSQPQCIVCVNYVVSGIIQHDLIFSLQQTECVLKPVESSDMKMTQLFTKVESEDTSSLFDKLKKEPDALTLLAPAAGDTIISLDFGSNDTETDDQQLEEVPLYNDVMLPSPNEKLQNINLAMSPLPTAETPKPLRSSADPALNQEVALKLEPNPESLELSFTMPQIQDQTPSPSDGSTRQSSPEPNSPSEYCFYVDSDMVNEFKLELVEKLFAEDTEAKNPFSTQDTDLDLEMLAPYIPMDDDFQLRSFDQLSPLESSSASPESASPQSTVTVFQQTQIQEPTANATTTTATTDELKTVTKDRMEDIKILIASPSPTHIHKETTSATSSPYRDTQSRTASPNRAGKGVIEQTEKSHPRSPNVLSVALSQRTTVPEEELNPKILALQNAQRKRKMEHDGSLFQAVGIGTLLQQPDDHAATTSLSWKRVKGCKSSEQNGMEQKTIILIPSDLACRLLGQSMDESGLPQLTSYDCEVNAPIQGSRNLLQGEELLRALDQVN

| Compound | EC50 |
| --- | --- |
| CCC(=O)NC(=S)Nc1ccc(NC(=O)c2cccc([N+](=O)[O-])c2C)cc1 | > 35 µM (inactive) |
| O=c1cc(CO)[nH]cc1OCc1ccccc1 | > 35 µM (inactive) |
| O=C(NCCCN1CCOCC1)c1cc(-c2cccs2)on1 | 12.3 µM |
| O=C(NCCc1ccccc1)c1cc(-c2ccco2)on1 | 10.8 µM |
| O=C(NC1CCCC1)c1cc(-c2ccccc2)on1 | 16.3 µM |
| Oc1ccc(N=Nc2ccc3c(c2)OCCO3)c2cccnc12 | > 35 µM (inactive) |
| COc1cc(OC)c2nc(C)c3c(c2c1)N(c1ccc(O)cc1)CC3 | > 35 µM (inactive) |
| Oc1cccc(/C=N/c2c(-c3ccco3)nc3ccccn23)c1 | > 35 µM (inactive) |
| N#CC(=C=[N-])c1nc2ccccc2nc1-[n+]1cccc(NC(=O)c2ccc(F)cc2)c1 | > 35 µM (inactive) |
| COc1ccccc1-c1cc(C(F)(F)F)nc(S(=O)(=O)CCCC(=O)N2CCOCC2)n1 | > 35 µM (inactive) |
| O=C(NCCCn1ccnc1)c1cc(-c2cccs2)on1 | 2.68 µM |
| CCN(CC)c1ccc(/C=N/NC(=O)c2c(Cl)cnn2C)c(O)c1 | 2.05 µM |
| COc1ccc(/C=N/NC(=O)c2cccnc2)cc1CN1CCN(c2ccc(F)cc2)CC1 | > 35 µM (inactive) |
| CCC1CCCCN1CCCNC(=O)C1CCN(c2nnc(-n3cccc3)s2)CC1 (stereo unspecified) | > 35 µM (inactive) |
| Cc1cc2ccc3ccccc3c2cc1CN(C)C | > 35 µM (inactive) |
| Cc1ccc(-c2nnn(CC(=O)N(Cc3cccs3)C(C(=O)NC3CCCCC3)c3ccco3)n2)o1 (stereo unspecified) | 33.4 µM |
| COC(=O)C1=Nc2ccccc2/C1=C\c1c(O)n(-c2cc(OC)ccc2OC)c(=O)[nH]c1=O | > 35 µM (inactive) |
| Cc1ccccc1Nc1c(-c2ccccn2)nc2ccccn12 | 8.61 µM |
| CSc1sc(C(=O)N2CCCCC2)c(-c2cccs2)c1C#N | > 35 µM (inactive) |
| CC(=O)Nc1cccc(NC(=O)CS(=O)(=O)c2cn(CC(=O)N3CCOCC3)c3ccccc23)c1 | > 35 µM (inactive) |
| Cc1cc(Br)cc(/C=N/NC(=O)c2ccc3c(c2)OCO3)c1O | 6.26 µM |
| C/C(=N\NC(=O)c1nnn(-c2nonc2N)c1-c1ccccc1)c1ccccc1O | 11.1 µM |
| O=C(N/N=C/c1cc(O)ccc1Br)c1cccnc1 | > 35 µM (inactive) |
| O=C(N/N=C/c1cc([N+](=O)[O-])ccc1O)c1cccc2cc[nH]c12 | 20.8 µM |
| Cc1ccc(C2=NOC(=O)/C2=C\c2ccccc2)cc1 | > 35 µM (inactive) |
| CCC(C)NCCOc1ccc(C)cc1[N+](=O)[O-] (stereo unspecified) | > 35 µM (inactive) |

| Compound | EC50 |
| --- | --- |
| Oc1ccc(Cl)cc1CNCC1CCCO1 (stereo unspecified) | > 35 µM (inactive) |
| CCCCn1c(/C=N/Nc2nc3ccccc3[nH]2)nc2ccccc21 | 7.81 µM |
| O=C1CCCN2N=C(SCC(=O)Nc3ccc(Br)cc3)SC2=N1 | 26.7 µM |
| COc1ccc(C(NC(C)=O)c2ccc3cccnc3c2O)c(OC)c1 (stereo unspecified) | 10.9 µM |
| Cc1cccc(NC(=O)Cc2noc3ccccc23)c1 | > 35 µM (inactive) |
| COc1cnc(-c2ccccn2)nc1NC(C)C | 1.85 µM |
| C=CCNC(=O)/C(=C/c1cn(-c2ccccc2)nc1-c1cccc([N+](=O)[O-])c1)NC(=O)c1ccccc1 | > 35 µM (inactive) |
| Cc1onc(-c2ccccc2)c1NC(=O)N(Cc1ccccc1)C(C)C | > 35 µM (inactive) |
| CN(C)C=NC(=O)c1cn(-c2ccc(F)cc2)c(=O)c2ccccc12 | > 35 µM (inactive) |
| CCCCC(=O)NC(c1ccccc1OC)c1ccc2cccnc2c1O (stereo unspecified) | 6.81 µM |
| COc1ccc(N=C2C(=O)N3CCCc4cccc2c43)cc1 | > 35 µM (inactive) |
| COc1ccc(CN2CCNC(=O)C2CC(=O)NC2CCCC2)c(OC)c1 (stereo unspecified) | > 35 µM (inactive) |
| Cc1ccc(-n2cc(CN3CCC(CO)(Cc4ccccc4)CC3)cn2)cc1 | > 35 µM (inactive) |
| CCC/C(=N/NC(=O)c1cccc(Cl)c1)c1ccccc1 | > 35 µM (inactive) |
| CC(=O)c1ccc(N2C(=NC(=O)COc3ccccc3)SC3CS(=O)(=O)CC32)cc1 (stereo unspecified) | > 35 µM (inactive) |
| O=C(NCC1CCCO1)c1cc(-c2ccc(F)cc2)no1 (stereo unspecified) | 32.6 µM |
| Oc1cccc(C(Nc2nccs2)c2ccc3cccnc3c2O)c1 (stereo unspecified) | 6.93 µM |
| Oc1ccc(/C=N/Nc2ccc(C(F)(F)F)cn2)c(O)c1 | 29.8 µM |
| Cc1ccc(C(=O)NC2CC3CCCC(C2)N3Cc2ccccc2)cc1 (stereo unspecified) | > 35 µM (inactive) |
| Cc1cc(/C=N/N2CCN(C)CC2)c(C)n1-c1ccc(Cl)cc1 | > 35 µM (inactive) |
| COc1ccc(OC)c(CNC(=O)C2CCCN(S(=O)(=O)N3CCC(C)CC3)C2)c1 (stereo unspecified) | > 35 µM (inactive) |
| c1ccc2c(NCCc3c[nH]c4ccccc34)c3ccccc3nc2c1 | > 35 µM (inactive) |
| S=C(Nc1ccc(Cl)cc1)Nc1ccc2cn[nH]c2c1 | > 35 µM (inactive) |
| COc1cccc(NC(=S)N(CCCN2CCOCC2)Cc2cn(C)c3ccccc23)c1 | > 35 µM (inactive) |
| CCOC(=O)c1c(-c2ccccc2)oc2cc(CN(C)C)c(O)c(CN(C)C)c12 | 5.53 µM |
| CCN(CC)S(=O)(=O)c1cccc(C(=O)N/N=C(\C)c2ccc(O)cc2O)c1 | 2.12 µM |

| Compound | EC50 |
| --- | --- |
| Cc1ccc(S(=O)(=O)N(C)CC(=O)NCCCn2ccnc2)cc1 | > 35 µM (inactive) |
| COCCNC(=O)c1cc(-c2cccs2)on1 | 12 µM |
| C1CC1Cc1noc(CN2CCN(CC3CC3)CC2)n1 | > 35 µM (inactive) |
| O=S(=O)(CCSc1nc2ccccc2s1)c1nc2ccccc2s1 | > 35 µM (inactive) |
| CC(C)C(=O)NC(c1cccc([N+](=O)[O-])c1)c1ccc2cccnc2c1O (stereo unspecified) | 2.3 µM |
| O=C(CC1SC(N2CCCC2)=NC1=O)Nc1ccc(C(=O)Nc2ncccc2O)cc1 (stereo unspecified) | 29.7 µM |
| COc1ccc(OC)c(NC2=NCCCS2)c1 | > 35 µM (inactive) |
| CCCC(=O)NC(c1ccc(C(C)C)cc1)c1ccc2cccnc2c1O (stereo unspecified) | 2.1 µM |
| COc1ccc(C(=O)Nc2ccc(C(=O)NCCc3ccc(OC)c(OC)c3)cc2)cc1 | > 35 µM (inactive) |
| O=C(CSc1ccc(-c2ccccn2)nn1)Nc1nccs1 | 10.6 µM |
| CCOc1nc(NCCN2CCOCC2)nc(Nc2ccc(C)cc2)n1 | > 35 µM (inactive) |
| CC(=O)Nc1ccc2c(c1)CCCC2=O | > 35 µM (inactive) |
| O=C(NCCCN1CCN(c2ccccc2F)CC1)Nc1ccccc1[N+](=O)[O-] | > 35 µM (inactive) |
| COc1ccc2nc(-c3cccc(N)c3)[nH]c2c1 | > 35 µM (inactive) |
| O=C(NNC(=O)c1ccccc1Br)c1ccc(Cl)cc1 | > 35 µM (inactive) |
| CN(Cc1cccc(C(F)(F)F)c1)C(=O)C1CCC(=O)N(CC2CCCCC2)C1 (stereo unspecified) | > 35 µM (inactive) |
| CCOc1ccc2c(C)c(Cl)c(=O)oc2c1 | > 35 µM (inactive) |
| Cc1cc(OC(C)C(=O)NNC(=O)Nc2ccc(F)cc2F)cc(C)c1Cl (stereo unspecified) | > 35 µM (inactive) |
| N#CCC(=O)N/N=C/c1ccc(SCC(=O)Nc2ccccc2)o1 | > 35 µM (inactive) |
| CC(C)=CCSc1nnc([C@@H](N)Cc2c[nH]c3ccccc23)o1 | > 35 µM (inactive) |
| S=C(N/N=C/c1cccc2ccccc12)Nc1cccc(Cl)c1 | 31.9 µM |
| COC(=O)C1C(=O)N2CCCSC2=C(C#N)C1c1cccs1 (stereo unspecified) | > 35 µM (inactive) |
| CCCCCCCCCS(=O)(=O)N/N=C/c1cccc([N+](=O)[O-])c1 | > 35 µM (inactive) |
| CCC(C)c1ccc2oc(-c3ccc(NC(=O)Cn4cnc5c(=O)n(C)c(=O)n(C)c54)cc3)nc2c1 (stereo unspecified) | 6.07 µM |

Source: PubChem BioAssay AID434951 (Broad Institute, 2010)
